These results are taken from patent US20250145606A1 (Arcus Biosciences, Inc., priority 2023, published 2025).

For one data set, the target named is PDGFRβ (Homo sapiens (Human), UniProt P09619). The experiment in a line: Inhibition of PDGFRβ kinase activity (HTRF KinEASE-TK). As to conditions: biochemical. The procedure, abridged: (§1)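 Human kinases were preincubated 1 h at rt with a 22-point 1:2 compound titration, then run 120 min at rt with biotinylated TK peptide and ATP (2× mix: c-Kit 16 μM, PDGFRα 1 μM, PDGFRβ 40 μM, CSF1R 20 μM). Phosphopeptide was read by HTRF TR-FRET (665/620 nm), and IC50s came from 4-parameter fits.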
Chain of PDGFRβ (P09619 33-1106): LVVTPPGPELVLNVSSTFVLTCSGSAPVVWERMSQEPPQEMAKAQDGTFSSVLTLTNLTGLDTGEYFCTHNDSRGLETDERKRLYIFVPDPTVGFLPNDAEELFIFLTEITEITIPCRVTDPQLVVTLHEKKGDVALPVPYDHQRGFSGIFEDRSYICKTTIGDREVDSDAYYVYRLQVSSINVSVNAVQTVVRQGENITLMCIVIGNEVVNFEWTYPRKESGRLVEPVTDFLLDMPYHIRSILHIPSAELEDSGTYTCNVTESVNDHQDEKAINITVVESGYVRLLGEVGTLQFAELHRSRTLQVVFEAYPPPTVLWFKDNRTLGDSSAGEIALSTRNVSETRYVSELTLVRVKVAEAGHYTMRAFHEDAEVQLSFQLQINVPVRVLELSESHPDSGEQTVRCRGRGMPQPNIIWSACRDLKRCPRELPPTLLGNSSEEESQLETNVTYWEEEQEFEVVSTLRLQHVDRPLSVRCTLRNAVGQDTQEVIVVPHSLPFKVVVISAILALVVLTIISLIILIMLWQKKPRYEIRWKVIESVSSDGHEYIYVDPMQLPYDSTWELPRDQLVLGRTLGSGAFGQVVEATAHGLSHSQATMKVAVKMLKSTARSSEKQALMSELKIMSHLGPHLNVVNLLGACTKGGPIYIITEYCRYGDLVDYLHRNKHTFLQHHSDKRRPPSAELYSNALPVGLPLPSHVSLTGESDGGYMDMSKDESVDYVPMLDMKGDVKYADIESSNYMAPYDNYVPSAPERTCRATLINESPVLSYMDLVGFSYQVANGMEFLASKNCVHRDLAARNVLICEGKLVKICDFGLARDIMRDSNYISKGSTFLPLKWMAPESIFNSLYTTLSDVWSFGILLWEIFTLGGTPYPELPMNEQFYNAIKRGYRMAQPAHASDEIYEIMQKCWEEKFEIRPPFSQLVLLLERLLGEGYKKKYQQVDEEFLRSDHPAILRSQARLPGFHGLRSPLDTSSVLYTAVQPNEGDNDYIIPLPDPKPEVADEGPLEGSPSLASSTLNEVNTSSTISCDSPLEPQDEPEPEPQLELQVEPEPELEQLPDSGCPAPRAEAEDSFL
On the technique in general: TR-FRET usually uses a lanthanide donor and a delayed reading to cut background.

The target in the next data set is CSF1R (Homo sapiens (Human), UniProt P07333). Briefly: Inhibition of CSF1R kinase activity (HTRF KinEASE-TK). To be noted: biochemical. In a few lines:
as §1

For the next data set, the target named is FLT3 (Homo sapiens (Human), UniProt P36888). The experiment in a line: Inhibition of FLT3 kinase activity (HTRF KinEASE-TK). The data set is classed as biochemical. To be noted: biochemical. In a few lines: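 FLT3 tyrosine kinase activity was measured with the HTRF KinEASE-TK kit by following phosphorylation of a biotinylated TK peptide. After the 45 min reaction, 10 μL of detection mix was added: 0.2 μM (2×) Streptavidin-XL665 and 2 μM (2×) TK-Antibody-Cryptate in detection buffer. After 60 min, TR-FRET was read on an Envision as the 665 nm/620 nm emission ratio with 320 nm excitation.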
Chain of FLT3 (P36888 27-993): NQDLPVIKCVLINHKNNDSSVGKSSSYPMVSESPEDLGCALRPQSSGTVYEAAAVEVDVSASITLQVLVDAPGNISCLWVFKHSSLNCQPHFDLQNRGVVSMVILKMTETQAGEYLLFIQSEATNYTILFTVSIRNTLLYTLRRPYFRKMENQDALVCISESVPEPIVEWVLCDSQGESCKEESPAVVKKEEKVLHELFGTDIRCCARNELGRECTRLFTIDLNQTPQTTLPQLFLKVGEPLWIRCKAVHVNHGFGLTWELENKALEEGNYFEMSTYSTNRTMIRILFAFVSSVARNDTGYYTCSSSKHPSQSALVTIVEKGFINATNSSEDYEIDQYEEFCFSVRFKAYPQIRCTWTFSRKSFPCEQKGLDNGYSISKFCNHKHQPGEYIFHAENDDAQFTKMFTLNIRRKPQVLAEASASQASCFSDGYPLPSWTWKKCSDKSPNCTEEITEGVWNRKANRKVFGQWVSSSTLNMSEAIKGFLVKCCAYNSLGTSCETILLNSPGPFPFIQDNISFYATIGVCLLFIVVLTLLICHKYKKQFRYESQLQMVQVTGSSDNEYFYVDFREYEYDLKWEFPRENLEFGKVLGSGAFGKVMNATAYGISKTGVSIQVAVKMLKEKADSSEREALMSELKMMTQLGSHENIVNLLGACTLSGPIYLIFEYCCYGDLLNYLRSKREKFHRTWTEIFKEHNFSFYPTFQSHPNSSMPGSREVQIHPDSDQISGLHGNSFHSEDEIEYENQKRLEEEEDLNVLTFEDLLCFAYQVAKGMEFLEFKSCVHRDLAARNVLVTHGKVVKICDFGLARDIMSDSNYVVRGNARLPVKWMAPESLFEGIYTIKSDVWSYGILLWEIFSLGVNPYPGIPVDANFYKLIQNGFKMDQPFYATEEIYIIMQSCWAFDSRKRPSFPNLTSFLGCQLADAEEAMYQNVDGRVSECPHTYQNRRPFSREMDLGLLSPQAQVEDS

The subject of data set [1] is Sprague Dawley rat hepatocytes. Briefly: Bioactivation assessment in rat hepatocytes. The data set is classed as in vitro ADME. As to conditions: 5 μM, 4 hours. As to the method:
(§2) Bioactivation Assessment Procedure
(§3) Pooled male Sprague Dawley rat (BioIVT), male beagle dog (BioIVT), male cynomolgus monkey (BioIVT), and a 50-donor pool of cryopreserved human hepatocytes (BioIVT) was thawed in pre-warmed 37° C. InVitroGro™ HT media (BioIVT), centrifuged, and resuspended in the InVitroGro™ HI media (BioIVT). The number of viable cells was determined by the Trypan blue exclusion method. The cells were diluted to a concentration of two million viable cells per milliliter (viability >80%) and seeded into round-bottom 96-well plates. The test articles were dissolved in DMSO and further diluted in 50% CH3CN and InVitroGro™ HI media with final concentrations of 0.05% DMSO and 0.5% CH3CN in the incubation mixture. Incubation was performed at a final concentration of one million cells per milliliter and 5 μM test compounds with continuous shaking at 1100 rpm in a 37° C., 5/95% CO2/air incubator with 100% relative humidity. After 4 hours, the samples were quenched by addition of 3 volumes of CH3CN, vortexed for 15 minutes, and centrifuged at 4200 rpm for 15 minutes at 10° C. (Sorvall Legend XTR centrifuge, Thermo Scientific, Langenselbold, Germany). 80 μL of the resulting supernatant was transferred into a new plate and mixed with 160 μL water followed by liquid chromatography-high resolution mass spectrometry (LC-HRMS) analysis.
(§4) Structural assignments of metabolites were determined through mass spectral analysis. The level of bioactivation was estimated based on the relative peak area of bioactivation products to all identified metabolites. The following equation was used: […]
(§5) Bioactivation products included glutathione conjugates, imine methides, quinones, diols, and other relevant metabolites.

In another data set the test system is beagle dog hepatocytes. Briefly: Bioactivation assessment in dog hepatocytes. The data set is classed as in vitro ADME. To be noted: 5 μM, 4 hours. The method, then: as §2, §3, §4, §5
For data set [2], the system named is cynomolgus monkey hepatocytes. Briefly: Bioactivation assessment in monkey hepatocytes. The data set is classed as in vitro ADME. As to conditions: 5 μM, 4 hours. As to the method:
as §2, §3, §4, §5

In another data set the test system is human hepatocytes. Briefly: Bioactivation assessment in human hepatocytes. The data set is classed as in vitro ADME. As to conditions: 5 μM, 4 hours. The method, then: as §2, §3, §4, §5

Molecules are shown by their SMILES. Marks after values point to notes of the source that are not given here. Some results are limits rather than exact numbers.

Chain of CSF1R (P07333 20-972): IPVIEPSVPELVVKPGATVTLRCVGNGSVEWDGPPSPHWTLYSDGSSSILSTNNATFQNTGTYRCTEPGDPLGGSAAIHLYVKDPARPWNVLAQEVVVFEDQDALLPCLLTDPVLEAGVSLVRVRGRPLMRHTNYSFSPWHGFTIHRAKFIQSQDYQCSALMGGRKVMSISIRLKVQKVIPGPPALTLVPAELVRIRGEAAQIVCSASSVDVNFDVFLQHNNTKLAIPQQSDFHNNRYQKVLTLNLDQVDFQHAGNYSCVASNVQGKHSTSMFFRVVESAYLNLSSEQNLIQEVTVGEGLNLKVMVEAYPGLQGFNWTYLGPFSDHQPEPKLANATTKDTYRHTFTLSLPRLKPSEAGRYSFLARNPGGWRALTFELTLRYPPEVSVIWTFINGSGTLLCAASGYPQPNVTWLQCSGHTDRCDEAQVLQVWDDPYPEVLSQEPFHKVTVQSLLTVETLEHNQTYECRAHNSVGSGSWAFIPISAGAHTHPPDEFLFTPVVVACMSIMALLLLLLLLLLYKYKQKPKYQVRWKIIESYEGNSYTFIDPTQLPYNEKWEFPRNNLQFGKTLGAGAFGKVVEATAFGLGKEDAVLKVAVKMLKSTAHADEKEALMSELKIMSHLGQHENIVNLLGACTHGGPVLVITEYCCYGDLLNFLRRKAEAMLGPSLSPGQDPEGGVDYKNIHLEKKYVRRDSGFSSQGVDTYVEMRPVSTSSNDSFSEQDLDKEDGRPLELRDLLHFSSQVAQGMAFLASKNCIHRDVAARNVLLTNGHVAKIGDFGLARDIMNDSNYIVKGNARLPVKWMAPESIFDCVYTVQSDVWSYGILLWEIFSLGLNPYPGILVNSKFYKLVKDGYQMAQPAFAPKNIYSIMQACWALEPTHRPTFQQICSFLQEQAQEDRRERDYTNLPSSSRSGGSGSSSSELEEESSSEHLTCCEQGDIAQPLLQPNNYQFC

For orientation: IC50 means the concentration needed to halve the response being measured. As for `Cc1ncc(C(=O)Nc2cc(C(=O)Nc3ccc(CC(F)(F)F)cn3)c(F)cc2C)s1` [Example 1, N-[4-Fluoro-2-methyl-5-[[5-(2,2,2-trifluoroethyl)pyridin-2-yl]carbamoyl]phenyl]-2-methyl-1,3-thiazole-5-carboxamide], the IC50 at PDGFRβ, on CSF1R and at FLT3 was more than 1000 nM in each case. Moreover, the “Percent of total metabolism via bioactivation, Rat hepatocytes” value (from here on “Percent … Rat hepatocytes”) in data set [1] is reported as 3-7%^b. Also, the “Percent of total metabolism via bioactivation, Dog hepatocytes” value (“Percent … Dog hepatocytes” below) in the data set on beagle dog hepatocytes is given as less than 1%^b. In addition, in data set [2], the “Percent of total metabolism via bioactivation, Monkey hepatocytes” value (shortened to “Percent … Monkey hepatocytes”) was determined as 4%. Also, the “Percent of total metabolism via bioactivation, Human hepatocytes” value (“Percent … Human hepatocytes” below) with human hepatocytes is reported as less than 0.1%^b.
Take `Cc1ncc(C(=O)Nc2cc(C(=O)Nc3ccc(OC4CC4)cn3)c(F)cc2C)s1` [Example 2, N-[5-[(5-Cyclopropyloxypyridin-2-yl)carbamoyl]-4-fluoro-2-methylphenyl]-2-methyl-1,3-thiazole-5-carboxamide]: the IC50 at PDGFRβ, against CSF1R and at FLT3 was more than 1000 nM each time. The “Percent … Rat hepatocytes” value in data set [1] is 1-2%ª. In addition, the “Percent … Dog hepatocytes” value with beagle dog hepatocytes was 3-4%^a.
`Cc1ncc(C(=O)Nc2cc(C(=O)Nc3ccc(C4CC4)cn3)c(F)cc2C)s1` [Example 3, N-[5-[(5-Cyclopropylpyridin-2-yl)carbamoyl]-4-fluoro-2-methylphenyl]-2-methyl-1,3-thiazole-5-carboxamide]: the IC50 against PDGFRβ, against CSF1R and against FLT3 was more than 1000 nM throughout. Moreover, the “Percent … Rat hepatocytes” value in data set [1] is recorded as less than 0.1%. Also, in the data set on beagle dog hepatocytes, the “Percent … Dog hepatocytes” value was 2%. In data set [2], the “Percent … Monkey hepatocytes” value is 2%. Further, in the data set on human hepatocytes, the “Percent … Human hepatocytes” value is reported as less than 0.1%.
For the compound `Cc1ncc(C(=O)Nc2cc(C(=O)Nc3cnc(OCC(C)(F)F)cn3)c(F)cc2C)s1` [Example 4, N-[5-[[5-(2,2-Difluoropropoxy)pyrazin-2-yl]carbamoyl]-4-fluoro-2-methylphenyl]-2-methyl-1,3-thiazole-5-carboxamide], the IC50 at PDGFRβ, at CSF1R and on FLT3 was more than 1000 nM in each case. Besides, in data set [1], the “Percent … Rat hepatocytes” value was less than 1%^a. In addition, the “Percent … Dog hepatocytes” value in the data set with beagle dog hepatocytes is less than 1%^a.
Regarding `Cc1ncc(C(=O)Nc2cc(C(=O)Nc3ccc(CC4CC4)cn3)c(F)cc2C)s1` [Example 5, N-[5-[[5-(Cyclopropylmethyl)pyridin-2-yl]carbamoyl]-4-fluoro-2-methylphenyl]-2-methyl-1,3-thiazole-5-carboxamide], the IC50 on PDGFRβ, against CSF1R and against FLT3 was more than 1000 nM throughout. Also, the “Percent … Rat hepatocytes” value in data set [1] is less than 1%. Besides, the “Percent … Dog hepatocytes” value with beagle dog hepatocytes is on record as 4%. Besides, the “Percent … Monkey hepatocytes” value in data set [2] is reported as less than 1%. In addition, the “Percent … Human hepatocytes” value in the data set on human hepatocytes was less than 1%.
For `Cc1ncc(C(=O)Nc2cc(C(=O)Nc3ccc(OC(F)F)cn3)c(F)cc2C)s1` [Example 38, N-[5-[[5-(difluoromethoxy)pyridin-2-yl]carbamoyl]-4-fluoro-2-methylphenyl]-2-methyl-1,3-thiazole-5-carboxamide], the IC50 on PDGFRβ (HTRF KinEASE-TK), against CSF1R (HTRF KinEASE-TK) and against FLT3 (HTRF KinEASE-TK) was more than 1000 nM each time. In addition, the “Percent … Rat hepatocytes” value in data set [1] is 2%. For the same compound, the “Percent … Dog hepatocytes” value in the data set on beagle dog hepatocytes is less than 1%.
Regarding `Cc1ncc(C(=O)Nc2cc(C(=O)Nc3ccc(CC(F)(F)F)cn3)c(F)cc2Cl)s1` [Example 46, N-[2-chloro-4-fluoro-5-[[5-(2,2,2-trifluoroethyl)pyridin-2-yl]carbamoyl]phenyl]-2-methyl-1,3-thiazole-5-carboxamide], the IC50 against PDGFRβ (HTRF KinEASE-TK), against CSF1R (HTRF KinEASE-TK) and against FLT3 (HTRF KinEASE-TK) was more than 1000 nM in each case. Besides, the “Percent … Rat hepatocytes” value in data set [1] is 80%. In addition, the “Percent … Dog hepatocytes” value with beagle dog hepatocytes came to 97%.
